Earlier results on 54 compounds are cited in publication PMC6376154 (International Journal for Parasitology: Drugs and Drug …, 2019).

The subject of the data set is P. falciparum 3D7 asexual blood stage. To be noted: cited from earlier work.
Where [1] appears, read: MMV Malaria Box sheet, ref MMV data sheets.
[2] abbreviates: MMV Malaria Box sheet, ref MMV data sheets, read-out: EC50_nM.
The mark [3] stands for this setting: source GNF, ref ChEMBL_NTD, read-out: CHEMBL EC50.
The mark [4] stands for this setting: MMV Malaria Box data sheet, ref MMV data sheets.
[5] abbreviates: MMV Malaria Box data sheet, ref MMV data sheets, read-out: EC50_nM.
[6] abbreviates: ChEMBL-NTD value per source (GNF, GSK, StJude), several values in a cell follow the order of the sources, read-out: CHEMBL EC50.
Where [7] appears, read: source GSK, ref ChEMBL_NTD, read-out: CHEMBL EC50.
Where [8] appears, read: MMV Malaria Box data sheet (supplement mmc2.xls), ref MMV data sheet, read-out: EC50_nM.
[9] abbreviates: value(s) per source (GSK, GNF, StJude), separated by semicolon, ref ChEMBL-NTD, read-out: CHEMBL EC50.
Setting [10] is: MMV Malaria Box data sheet (supplement mmc2.xls), ref MMV data sheet.

Like-named read-outs stand apart in the source and are kept apart here.

`CCOC(=O)c1cnc2c(C)cccc2c1Nc1ccc(C(C)=O)cc1` [MMV006250]: under setting [1], the “percent_inh @ 5 uM” value is listed as 94%. Besides, the EC50 by setting is: under setting [2], 314 nM; under setting [3], 119 nM.
With `CCc1c(C)c(=N)c2ccccc2n1C` [MMV006278], the “percent_inh @ 5 uM” value under setting [4] is given as 76%. For the same compound, the EC50 is, setting by setting: under setting [5], 378 nM; under setting [3], 701 nM.
On to `CCN(CC)CCNc1ccnc2cc3ccccc3cc12` [MMV006303], for which the EC50 under setting [6] is 28.6 nM.
As to `CN(C)c1ccc(C=Cc2nc(=O)c3ccccc3o2)cc1` [MMV006309], the “percent_inh @ 5 uM” value under setting [4] is listed as 96%. The EC50 runs as follows: under setting [5], 51.5 nM; under setting [7], 44.6 nM.
`Cc1cc(Nc2cccc(F)c2)nc(NCc2ccccc2)n1` [MMV006319]: under setting [1], the “percent_inh @ 2 uM” value is 97%. The EC50 by setting is: under setting [2], 662 nM; under setting [3], 72.2 nM.
In the case of `O=C1c2ccccc2C2=Nc3ccccc3SC(c3cccc(F)c3)C12` (stereo not drawn) [MMV006389], under setting [1], the “percent_inh @ 5 uM” value is reported as 94%. The EC50 by setting is: under setting [2], 414 nM; under setting [3], 86.7 nM.
With `COc1cc(OC)c(N(C)C(=O)c2cc3c(s2)-c2ccccc2S(=O)(=O)C3)cc1Cl` [MMV006427], the “percent_inh @ 5 uM” value under setting [4] was 100%. In addition, the EC50 is 78.2 nM under setting [5] and 113 nM under setting [3].
Take `Cc1cc(NC(=O)C2c3ccccc3C(=O)N(CC(C)C)C2c2cccs2)no1` (stereo not drawn) [MMV006429]: under setting [4], the “percent_inh @ 5 uM” value was 100%. In addition, the EC50 under setting [5] was 32.8 nM and the EC50 under setting [3] is 85.6 nM.
`CCOC(=O)c1ccc2nc(-c3ccccc3)cc(O)c2c1` [MMV006457]: the “percent_inh @ 5 uM” value under setting [4] is on record as 96%. Moreover, the EC50 under setting [5] is 118 nM and the EC50 under setting [3] was 549 nM.
For `c1ccc2c(NCCc3c[nH]c4ccccc34)c3ccccc3nc2c1` [MMV006513], the “percent_inh @ 5 uM” value under setting [1] is listed as 97%. In addition, the EC50 runs as follows: under setting [2], 304 nM; under setting [3], 86 nM.
Regarding `CCOc1ccc2nc(C)cc(Nc3ccc(Br)cc3)c2c1` [MMV006522], under setting [6], the EC50 was 114 nM.
Take `CCN(CC)CCNc1ncnc2c1[nH]c1ccc(Br)cc12` [MMV006545]: the EC50 under setting [8] is 707 nM and the EC50 under setting [9] was 288 nM.
For the compound `Cc1cc(C)c2c(c1)OCN(Cc1ccccc1Cl)C2` [MMV006558], the “percent_inh @ 5 uM” value under setting [4] is recorded as 98%. Moreover, the EC50 is 268 nM under setting [5] and 192 nM under setting [3].
For the compound `Clc1ccc2[nH]c3c(NCCCN4CCOCC4)ncnc3c2c1` [MMV006587], the EC50 was 700 nM under setting [8] and 109 nM under setting [9].
For `CCOC(=O)C1=CN(C)C=C(C(=O)OCC)C1c1cc(Br)c(OCC)c(OC)c1` [MMV006656], the EC50 under setting [6] was 913 nM.
`CN(C)CCNc1cc(-c2ccccc2)nc2ccccc12` [MMV006704]: the “percent_inh @ 2 uM” value under setting [1] was 92%. Further, the EC50 reads like this: under setting [2], 4000 nM; under setting [3], 692 nM.
In the case of `Cc1cc(N2CCN(C3CCCC3)CC2)n2c(nc3ccccc32)c1C#N` [MMV006706], the EC50 reads like this: under setting [8], 683 nM; under setting [9], 743 nM.
Turning to `Cc1cc(=O)oc2c1ccc1oc(C(=O)c3ccccc3)c(C)c12` [MMV006753], the “percent_inh @ 5 uM” value under setting [1] is listed as 94%. Moreover, the EC50 under setting [3] was 441 nM.
In the case of `CCOc1c(Br)cc(C2C(C(=O)OC)=CN(C)C=C2C(=O)OC)cc1OC` [MMV006764], under setting [6], the EC50 is 292 nM.
With `COc1cc2cc(C(=O)Nc3ccccc3)c(N)nc2cc1OC` [MMV006767], the “percent_inh @ 5 uM” value under setting [10] is 99%.
Take `CC(C)CCNCC(O)Cn1c2ccccc2c2ccccc21` (stereo not drawn) [MMV006787]: the “percent_inh @ 5 uM” value under setting [1] was 97%. Further, the EC50 is, setting by setting: under setting [2], 473 nM; under setting [3], 201 nM.
As for `CCCCc1c(C)nc2c(OC)cccc2c1O` [MMV006820], the “percent_inh @ 2 uM” value under setting [1] is given as 92%. The EC50 reads like this: under setting [2], 4000 nM; under setting [3], 1690 nM.
With `COc1ccc(Nc2cc(C)nc(NCc3ccccc3)n2)cc1` [MMV006825], the EC50 under setting [6] is 151 nM.
As to `c1ccc2cc3c(Nc4ccc(N5CCOCC5)cc4)ccnc3cc2c1` [MMV006861], under setting [4], the “percent_inh @ 5 uM” value was 97%. Also, the EC50 was 251 nM under setting [5] and 672 nM under setting [3].
`CCOC(=O)c1cnc2ccc(Cl)cc2c1NCCCN(C)C` [MMV006882]: the “percent_inh @ 5 uM” value under setting [1] was 98%. The EC50 is 1190 nM under setting [2] and 826 nM under setting [3].
Consider `C=CCc1c(C)nc2ccccc2c1O` [MMV006913], for which, under setting [10], the “percent_inh @ 5 uM” value was 85%. Also, the EC50 was 1290 nM under setting [8] and 707 nM under setting [9].
Take `Cc1ccc(-c2cc3nc4c(c(O)n3n2)CCCC4)cc1` [MMV006937]: the “percent_inh @ 5 uM” value under setting [4] is recorded as 73%. Moreover, the EC50 is, setting by setting: under setting [5], 396 nM; under setting [3], 1600 nM.
As to `O=C(Nc1ccc(-c2nc3cc(NC(=O)c4ccc(Cl)cc4)ccc3[nH]2)cc1)c1ccc(Cl)cc1` [MMV006962], the “% inh. At 1.25 uM” value (1.25 uM, solubility issue at 5 uM) is recorded as “Solubility issue at 5 uM. % inh. At 1.25 uM is 48”. Besides, the EC50 under setting [6] is 993 nM.
Turning to `CCOc1ccc2nc(C)cc(Nc3ccc(N(C)C)cc3)c2c1` [MMV007020], the EC50 under setting [6] was 344 nM.
For `Cc1ccc2c(C)nc(Nc3nc(C)cc(-c4ccccc4)n3)nc2c1` [MMV007041], the EC50 under setting [6] is 975 nM.
As to `CCOc1ccc(CN2CCN(CC(O)COc3ccc(OCC(O)CN4CCN(Cc5ccc(OCC)cc5)CC4)cc3)CC2)cc1` (stereo not drawn) [MMV007092], under setting [6], the EC50 is 1370 nM.
As to `c1ccc(C2=Nc3ccccc3N=C(c3ccccc3)c3ccccc32)cc1` [MMV007113], the EC50 under setting [6] is 678 nM.
For `CCOC(=O)c1cnc2ccc(CC)cc2c1O` [MMV007116], the EC50 under setting [5] is 351 nM and the EC50 under setting [3] is 716 nM.
With `OC1=C2C(=Nc3ccccc3SC2c2ccc(Br)cc2)c2ccccc21` (stereo not drawn) [MMV007127], the “percent_inh @ 5 uM” value under setting [1] was 97%. Moreover, the EC50 by setting is: under setting [2], 567 nM; under setting [3], 337 nM.
`Cc1ccc(N2C3c4ccccc4N(S(=O)(=O)c4ccc(C)cc4)C2c2ccccc2N3S(=O)(=O)c2ccc(C)cc2)cc1` [MMV007160]: the “percent_inh @ 5 uM” value under setting [4] is recorded as 97%. Besides, the EC50 is, setting by setting: under setting [5], 24.8 nM; under setting [3], 720 nM.
For the compound `Cc1cc(Nc2ccc(OCc3ccccc3)cc2)nc2cc(O)ccc12` [MMV007181], under setting [6], the EC50 was 73.6 nM.
With `COc1ccccc1N1C(=N)SC(=Cc2ccc(OCc3ccccc3F)cc2)C1=O` [MMV007199], the “percent_inh @ 5 uM” value under setting [1] is on record as 95%. The EC50 under setting [2] is 478 nM.
For the compound `COc1ccc(OC)c(C2C3=C(CC(C)(C)CC3=O)N(c3ccc(Cl)c(Cl)c3)C3=C2C(=O)CC(C)(C)C3)c1` [MMV007208], under setting [1], the “percent_inh @ 5 uM” value is recorded as 90%. In addition, the EC50 by setting is: under setting [2], 912 nM; under setting [3], 430 nM.
As to `Cc1cccc(N2C(=O)C3C(C2=O)C2(c4ccccc4)C(=O)C3(c3ccccc3)C(c3ccc4c(c3)OCO4)=C2c2ccc3c(c2)OCO3)c1` (stereo not drawn) [MMV007228], under setting [6], the EC50 was 1070 nM.
Regarding `Cc1ccc(F)cc1NC(=O)c1cc(Cl)ccc1Nc1ccccc1` [MMV007275], under setting [6], the EC50 was 191 nM.
In the case of `CCOc1ccc(Nc2ccnc3cc(Cl)ccc23)cc1` [MMV007285], the EC50 under setting [6] was 956 nM.
Consider `CCc1ccc(Nc2cc(C)nc3nc(C)nn23)cc1` [MMV007374], for which, under setting [10], the “percent_inh @ 2 uM” value is given as 81%. The EC50 runs as follows: under setting [8], 4000 nM; under setting [9], 574 nM.
For the compound `COc1ccc(-c2nc3cc(Cc4ccc5[nH]c(-c6ccc(OC)cc6)nc5c4)ccc3[nH]2)cc1` [MMV007384], under setting [4], the “percent_inh @ 5 uM” value was 98%. The EC50 was 176 nM under setting [5] and 234 nM under setting [3].
Turning to `Cc1ccccc1OCCSc1nc2ccc(NC(=O)c3cccs3)cc2s1` [MMV007396], the EC50 under setting [6] was 497 nM.
For the compound `O=C(NCc1ccco1)C1CCN(S(=O)(=O)c2ccc(Br)cc2)CC1` [MMV007430], the “percent_inh @ 5 uM” value under setting [10] was 93%. The EC50 runs as follows: under setting [8], 939 nM; under setting [9], 362 nM.
`COc1cc2c3cc1Oc1c(OC)c(OC)cc4c1C(Cc1ccc(O)c(c1)Oc1ccc(cc1)CC3N(C)CC2)N(C)CC4` (stereo not drawn) [MMV007474]: under setting [6], the EC50 was 997 nM.
For `COc1ccc(CCNC(=O)c2cc(S(=O)(=O)N3CC(C)CC(C)C3)ccc2Sc2ccc(F)cc2)cc1OC` (stereo not drawn) [MMV007557], under setting [1], the “percent_inh @ 5 uM” value was 97%. Further, the EC50 is, setting by setting: under setting [2], 632 nM; under setting [3], 1050 nM.
As to `Cc1ccc(Cn2c(N3CCC(C(=O)NCc4cccs4)CC3)nc3ccccc32)cc1` [MMV007564], the “percent_inh @ 5 uM” value under setting [4] was 73%. Further, the EC50 is, setting by setting: under setting [5], 947 nM; under setting [3], 529 nM; under setting [7], 748 nM.
In the case of `Cc1ccc(CSCc2ccc(C(=O)NC3CC3)o2)cc1` [MMV007571], the “percent_inh @ 5 uM” value under setting [10] is reported as 97%. Also, the EC50 is, setting by setting: under setting [8], 635 nM; under setting [9], 418 nM.
With `O=C(Nc1ccc(C23CC4CC(CC(c5ccccc5)(C4)C2)C3)cc1)c1cccs1` [MMV007574], the “percent_inh @ 5 uM” value under setting [1] is recorded as 96%. Besides, the EC50 under setting [2] was 826 nM and the EC50 under setting [3] was 645 nM.
Consider `Cc1ccccc1OCCSc1nc2ccc(NC(=O)c3ccccc3)cc2s1` [MMV007577], for which, under setting [1], the “percent_inh @ 5 uM” value is given as 93%. In addition, the EC50 is 1120 nM under setting [2] and 9760 nM under setting [3].
For `COc1ccc(C(=O)C(CCC(CNC(C)(C)C)C(=O)c2ccc(OC)cc2)CNC(C)(C)C)cc1` (stereo not drawn) [MMV007591], under setting [6], the EC50 was 1120 nM.
For `CC(=O)NCCc1nc2ccccc2n1Cc1ccc(C(C)C)cc1` [MMV007617], under setting [10], the “percent_inh @ 5 uM” value was 97%. Moreover, the EC50 is, setting by setting: under setting [8], 1790 nM; under setting [9], 764 nM.
Consider `Cc1ccc(C)c(-c2csc(Nc3ccc(C)c(C)c3)n2)c1` [MMV007654], for which, under setting [6], the EC50 was 493 nM.
